One assay deals with T1, M3 muscarinic receptor (Homo sapiens, UniProt P20309).
T1 construct: purchased
Description: Muscarinic receptor radioligand binding assay ([3H]-NMS), M3. Particulars: cell membranes expressing human M3 receptor. As to the method: (§1) The inhibitory effects of compounds of the present invention at the M3 muscarinic receptor and (in the case of Example 77) the β2 adrenergic receptor, were determined by the following binding assays:
Radioligand binding studies utilising [^3H]-N-methyl scopolamine ([^3H]-NMS) and commercially available cell membranes expressing the human muscarinic receptors (M2 and M3) were used to assess the affinity of muscarinic antagonists for M2 and M3 receptors. Membranes in TRIS buffer were incubated in 96-well plates with [^3H]-NMS and M3 antagonist at various concentrations for 3 hours. Membranes and bound radioligand were then harvested by filtration and allowed to dry overnight. Scintillation fluid was then added and the bound radioligand counted using a Can berra Packard Topcount scintillation counter

In assay [1] the target is T2, human β2 adrenergic receptor (Homo sapiens, UniProt P07550).
T2 construct: purchased
T2 sequence (P07550 whole entry): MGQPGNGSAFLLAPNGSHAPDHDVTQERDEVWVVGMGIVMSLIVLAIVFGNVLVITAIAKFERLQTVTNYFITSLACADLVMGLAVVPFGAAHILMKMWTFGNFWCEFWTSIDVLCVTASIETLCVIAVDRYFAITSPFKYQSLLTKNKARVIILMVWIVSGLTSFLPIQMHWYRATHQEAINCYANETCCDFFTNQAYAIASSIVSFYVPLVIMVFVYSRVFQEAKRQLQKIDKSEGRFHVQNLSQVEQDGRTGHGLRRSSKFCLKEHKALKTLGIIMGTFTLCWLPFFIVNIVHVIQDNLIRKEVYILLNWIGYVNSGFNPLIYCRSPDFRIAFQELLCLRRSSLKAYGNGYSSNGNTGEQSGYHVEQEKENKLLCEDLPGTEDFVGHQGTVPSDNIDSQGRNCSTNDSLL
Description: β-Adrenergic receptor radioligand binding assay ([125I]-Iodocyanopindolol). Particulars: cell membranes expressing human β2 adrenergic receptor. The method, then: as §1
Radioligand binding studies utilising [^125I]-Iodocyanopindolol and commercially available cell membranes expressing the human β2 adrenergic receptor were used to assess the affinity of antagonists for β2-adrenergic receptor. Membranes and SPA-beads were incubated with [^125I-Iodocyanopindolol and β2 antagonist at various concentrations for 3 hours at room temperature in TRIS buffer. The assay was performed in 96-well plates which were read using the Wallac Microbeta counter.

The record followed here is US20100113540A1, “Azole and Thiazole Derivatives and Their Use” (ARGENTA DISCOVERY LIMITED, priority 2005, published 2010).

Molecules are shown by their SMILES. Structures can show the parent of a compound that is named as a salt.

T1 sequence (P20309 whole entry): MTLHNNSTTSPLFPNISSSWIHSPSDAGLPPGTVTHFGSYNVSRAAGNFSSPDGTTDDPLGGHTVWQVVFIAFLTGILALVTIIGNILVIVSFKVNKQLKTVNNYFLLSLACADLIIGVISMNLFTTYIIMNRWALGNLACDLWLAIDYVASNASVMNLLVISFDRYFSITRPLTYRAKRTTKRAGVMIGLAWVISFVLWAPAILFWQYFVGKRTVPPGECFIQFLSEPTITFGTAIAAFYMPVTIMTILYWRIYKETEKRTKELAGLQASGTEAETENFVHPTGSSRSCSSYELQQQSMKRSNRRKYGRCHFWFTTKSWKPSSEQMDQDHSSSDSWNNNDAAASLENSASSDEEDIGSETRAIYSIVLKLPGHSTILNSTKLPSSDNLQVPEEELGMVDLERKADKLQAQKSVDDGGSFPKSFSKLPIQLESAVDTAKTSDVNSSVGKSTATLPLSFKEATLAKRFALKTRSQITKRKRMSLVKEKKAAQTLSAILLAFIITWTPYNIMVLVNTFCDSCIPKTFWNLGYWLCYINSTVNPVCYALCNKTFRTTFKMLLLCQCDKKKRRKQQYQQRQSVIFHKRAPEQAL

With `C[N+](C)(CCCc1ccccc1)Cc1cnc([C@](O)(c2ccccc2)C2CCCCC2)o1` [Example 48, [2-((R)-cyclohexyl-hydroxy-phenyl-methyl)-oxazol-5-ylmethyl]-dimethyl-(3-phenyl-propyl)-ammonium formate], the Ki on M3 muscarinic receptor is < 1 nM. As to `C[N+](C)(CCOc1ccccc1)Cc1cnc([C@](O)(c2ccccc2)C2CCCCC2)o1` [Example 49, [2-((R)-cyclohexyl-hydroxy-phenyl-methyl)-oxazol-5-ylmethyl]-dimethyl-(2-phenoxy-ethyl)-ammonium formate], the Ki at M3 muscarinic receptor was < 1 nM. For the molecule `CN(Cc1ccc(CC[N+](C)(C)Cc2cnc([C@](O)(c3ccccc3)C3CCCCC3)o2)cc1)C(=O)OC(C)(C)C` [Example 50, (2-{4-[(Tert-butoxycarbonyl-methyl-amino)-methyl]-phenyl}-ethyl)-[2-((R)-cyclohexyl-hydroxy-phenyl-methyl)-oxazol-5-ylmethyl]-dimethyl-ammonium methanesulfonate], the Ki at M3 muscarinic receptor is > 10 nM. `C[N+](C)(CCCOc1ccc(C(N)=O)cc1)Cc1cnc([C@](O)(c2ccccc2)C2CCCCC2)o1` [Example 51, [3-(4-Carbamoyl-phenoxy)-propyl]-[2-((R)-cyclohexyl-hydroxy-phenyl-methyl)-oxazol-5-ylmethyl]-dimethyl-ammonium bromide]: the Ki on M3 muscarinic receptor fell in the range of 1 to 10 nM. The same measure, in the same setting: for `C[N+](C)(CC(=O)Nc1ccon1)Cc1cnc([C@](O)(c2ccccc2)C2CCCCC2)o1` [Example 52, [2-((R)-Cyclohexyl-hydroxy-phenyl-methyl)-oxazol-5-ylmethyl]-(isoxazol-3-ylcarbamoylmethyl)-dimethyl-ammonium bromide] the value was 1 to 10 nM.

The molecule `COC(=O)c1ccc(OCCC[N+](C)(C)Cc2cnc([C@](O)(c3ccccc3)C3CCCCC3)o2)cc1` [Example 53, [2-((R)-Cyclohexyl-hydroxy-phenyl-methyl)-oxazol-5-ylmethyl]-[3-(4-methoxycarbonyl-phenoxy)-propyl]-dimethyl-ammonium bromide] registered a Ki on M3 muscarinic receptor of 1 to 10 nM. For the molecule `C[N+](C)(CCCOc1ccc(S(N)(=O)=O)cc1)Cc1cnc([C@](O)(c2ccccc2)C2CCCCC2)o1` [Example 54, [2-((R)-Cyclohexyl-hydroxy-phenyl-methyl)-oxazol-5-ylmethyl]-dimethyl-[3-(4-sulfamoyl-phenoxy)-propyl]-ammonium bromide], the Ki on M3 muscarinic receptor was 1 to 10 nM. On to `Cc1ccc(OCCC[N+](C)(C)Cc2cnc([C@](O)(c3ccccc3)C3CCCCC3)o2)cc1` [Example 55, [2-((R)-Cyclohexyl-hydroxy-phenyl-methyl)-oxazol-5-ylmethyl]-dimethyl-(3-p-tolyloxy-propyl)-ammonium bromide], for which the Ki on M3 muscarinic receptor is < 1 nM. For the molecule `C[N+](C)(CCCOc1ccc(Cl)cc1)Cc1cnc([C@](O)(c2ccccc2)C2CCCCC2)o1` [Example 56, [3-(4-Chloro-phenoxy)-propyl]-[2-((R)-cyclohexyl-hydroxy-phenyl-methyl)-oxazol-5-ylmethyl]-dimethyl-ammonium bromide], the Ki on M3 muscarinic receptor is < 1 nM. On to `C[N+](C)(CCCOc1ccc(Cl)c(Cl)c1)Cc1cnc([C@](O)(c2ccccc2)C2CCCCC2)o1` [Example 57, [2-((R)-Cyclohexyl-hydroxy-phenyl-methyl)-oxazol-5-ylmethyl]-[3-(3,4-dichloro-phenoxy)-propyl]-dimethyl-ammonium bromide], for which the Ki at M3 muscarinic receptor was < 1 nM. On M3 muscarinic receptor, `C[N+]1(Cc2cnc(C(O)(c3ccccc3)c3ccccc3)o2)CCC(Oc2ccccc2)CC1` (stereo not shown) [Example 58, 1-[2-(Hydroxy-diphenyl-methyl)-oxazol-5-ylmethyl]-1-methyl-4-phenoxy-piperidinium bromide] gave a Ki of 1 to 10 nM. As to `C[N+](C)(Cc1ccccc1)Cc1cnc([C@](O)(c2ccccc2)C2CCCC2)o1` [Example 59, Benzyl-[2-(cyclopentyl-hydroxy-phenyl-methyl)-oxazol-5-ylmethyl]-dimethyl-ammonium bromide], the Ki on M3 muscarinic receptor lay in the range of 1 to 10 nM. Regarding `CNCCCCCCCC[N+](C)(C)Cc1cnc([C@](O)(c2ccccc2)C2CCCCC2)o1` [Example 61, [2-((R)-cyclohexyl-hydroxy-phenyl-methyl)-oxazol-5-ylmethyl]-dimethyl-(8-methylamino-octyl)-ammonium methanesulfonate hydrochloride salt], the Ki on M3 muscarinic receptor was < 1 nM.

For `CNCc1ccc(CC[N+](C)(C)Cc2cnc([C@](O)(c3ccccc3)C3CCCCC3)o2)cc1` [Example 62, [2-((R)-cyclohexyl-hydroxy-phenyl-methyl)-oxazol-5-ylmethyl]-dimethyl-[2-(4-methylaminomethyl-phenyl)-ethyl]-ammonium methanesulfonate hydrochloride], the Ki on M3 muscarinic receptor was < 1 nM. For the molecule `C[N+](C)(CCCOc1ccccc1)CCc1cnc(C(O)(c2ccccc2)C2CCCCC2)o1` (stereo not shown) [Example 65, {2-[2-(Cyclohexyl-hydroxy-phenyl-methyl)-oxazol-5-yl]-ethyl}-dimethyl-(3-phenoxy-propyl)-ammonium bromide], the Ki at M3 muscarinic receptor was < 1 nM. In turn, `CN(C)CCc1cnc(C(O)(c2ccccc2)c2ccccc2)o1` [Example 71, [5-(2-Dimethylamino-ethyl)-oxazol-2-yl]-diphenyl-methanol] registered a Ki on M3 muscarinic receptor of 1 to 10 nM. On the same count and under the same terms, next, `C[N+](C)(CCCOc1ccccc1)CCc1cnc(C(O)(c2ccccc2)c2ccccc2)o1` [Example 72, {2-[2-(Hydroxy-diphenyl-methyl)-oxazol-5-yl]-ethyl}-dimethyl-(3-phenoxy-propyl)-ammonium bromide]: < 1 nM; `CN(C)Cc1cnc(C(c2ccccc2)c2ccccc2)o1` [Example 73, (2-Benzhydryl-oxazol-5-ylmethyl)-dimethyl-amine]: > 10 nM. As to `C[N+](C)(CCCOc1ccccc1)Cc1cnc(C(c2ccccc2)c2ccccc2)o1` [Example 74, (2-Benzhydryl-oxazol-5-ylmeth-dimethyl-(3-phenoxy-propyl)-ammonium bromide], the Ki at M3 muscarinic receptor is > 10 nM. Consider `COC(c1ccccc1)(c1ccccc1)c1ncc(C[N+](C)(C)CCCOc2ccccc2)o1` [Example 76, [2-(Methoxy-diphenyl-methyl)-oxazol-5-ylmethyl]-dimethyl-(3-phenoxy-propyl)-ammonium bromide], for which, at M3 muscarinic receptor, the Ki is > 10 nM. For `CN(CCCCCCCCCNC[C@H](O)c1ccc(O)c2[nH]c(=O)ccc12)Cc1cnc(C(O)(c2ccccc2)C2CCCCC2)o1` (stereo partly drawn) [Example 77, 5-[(R)-2-(9-{[2-(Cyclohexyl-hydroxy-phenyl-methyl)-oxazol-5-ylmethyl]-methyl-amino}-nonylamino)-1-hydroxy-ethyl]-8-hydroxy-1H-quinolin-2-one], the Ki at M3 muscarinic receptor is > 10 nM; in assay [1], < 100 nM. Turning to `C[N+](C)(CCCOc1ccccc1)Cc1cnc(C(O)(c2ccccc2)c2ccccc2)s1` [Example 79, [2-(Hydroxydiphenylmethyl)thiazol-5-ylmethyl]dimethyl-(3-phenoxypropyl)ammonium bromide], the Ki at M3 muscarinic receptor is < 1 nM.

On to `C[N+](C)(CCCOCc1ccccc1)Cc1cnc([C@](O)(c2ccccc2)C2CCCCC2)o1` [Example 80, (3-Benzyloxy-propyl)-[2-((R)-cyclohexyl-hydroxy-phenyl-methyl)-oxazol-5-ylmethyl]-dimethyl-ammonium bromide], for which, on M3 muscarinic receptor, the Ki is < 1 nM. Same read-out and setting: for `C[N+](C)(CCOCc1ccc(Cl)cc1)Cc1cnc([C@](O)(c2ccccc2)C2CCCCC2)o1` [Example 81, [2-(4-Chloro-benzyloxy)-ethyl]-[2-((R)-cyclohexyl-hydroxy-phenyl-methyl)-oxazol-5-ylmethyl]-dimethyl-ammonium methanesulfonate] the value was < 1 nM.

Broadly, the Ki is the dissociation constant of the complex between target and ligand, obtained from inhibition or displacement.
